Legend:
Type in all cases: biochemical
rhVAP-1 = rhVAP-1 (Homo sapiens (Human), UniProt Q16853); assay: VAP-1 fluorometric assay (Amplex Red/HRP, benzylamine substrate); details: class symbols, ranges defined in μM
Method in brief: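 Recombinant human VAP-1 oxidizes 50 μM benzylamine in 10 mM NaHCO3 pH 7.4 containing 0.05 mM Amplex Red and 0.5 U HRP, with inhibitor in 0.5% DMSO. After 30 min at 37 °C in the dark, resorufin fluorescence is read […], calibrated against an H2O2 standard curve.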

rhMAO-A = rhMAO-A (Homo sapiens (Human), UniProt P21397); assay: MAO-Glo assay, MAO-A inhibition
Sequence of rhMAO-A (P21397 whole entry): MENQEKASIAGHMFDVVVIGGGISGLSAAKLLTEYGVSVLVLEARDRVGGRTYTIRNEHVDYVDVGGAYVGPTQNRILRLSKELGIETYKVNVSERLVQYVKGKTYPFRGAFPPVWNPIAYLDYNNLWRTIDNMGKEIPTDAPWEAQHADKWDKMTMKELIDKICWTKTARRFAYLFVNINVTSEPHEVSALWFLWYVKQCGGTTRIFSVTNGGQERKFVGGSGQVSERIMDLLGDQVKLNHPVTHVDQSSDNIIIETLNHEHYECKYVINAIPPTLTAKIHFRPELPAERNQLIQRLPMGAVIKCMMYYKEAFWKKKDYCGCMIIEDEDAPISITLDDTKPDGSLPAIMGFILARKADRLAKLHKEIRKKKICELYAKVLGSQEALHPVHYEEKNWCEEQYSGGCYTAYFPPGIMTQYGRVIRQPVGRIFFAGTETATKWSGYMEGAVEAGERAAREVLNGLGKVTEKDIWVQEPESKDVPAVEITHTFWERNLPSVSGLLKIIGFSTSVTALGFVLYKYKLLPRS
Method in brief: (§1)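 Recombinant human MAO-A or MAO-B with luciferin-derivative substrate (10 μM for MAO-A, […]) in 100 mM HEPES pH 7.5, 5% glycerol, 1 h at room temperature; luminescence read 20 min after detection reagent.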

rhMAO-B = rhMAO-B (Homo sapiens (Human), UniProt P27338); assay: MAO-Glo assay, MAO-B inhibition; details: class symbols, ranges defined in μM
Sequence of rhMAO-B (P27338 whole entry): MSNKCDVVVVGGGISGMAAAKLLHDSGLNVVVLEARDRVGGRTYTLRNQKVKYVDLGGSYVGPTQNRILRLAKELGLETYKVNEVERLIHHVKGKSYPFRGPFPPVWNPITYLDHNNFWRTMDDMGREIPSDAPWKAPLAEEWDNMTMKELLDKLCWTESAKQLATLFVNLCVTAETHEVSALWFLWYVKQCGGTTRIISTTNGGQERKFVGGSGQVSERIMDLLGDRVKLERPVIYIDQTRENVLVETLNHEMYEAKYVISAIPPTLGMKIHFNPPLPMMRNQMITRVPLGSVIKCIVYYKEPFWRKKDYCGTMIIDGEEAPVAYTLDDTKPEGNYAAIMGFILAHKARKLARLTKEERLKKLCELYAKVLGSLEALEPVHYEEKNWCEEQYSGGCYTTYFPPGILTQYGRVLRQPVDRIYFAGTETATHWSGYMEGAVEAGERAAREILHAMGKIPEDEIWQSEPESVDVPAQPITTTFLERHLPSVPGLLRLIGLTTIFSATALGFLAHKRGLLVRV
Method in brief: as §1

[1] = class symbols, ranges defined in μM

Sequence of rhVAP-1 (Q16853 whole entry): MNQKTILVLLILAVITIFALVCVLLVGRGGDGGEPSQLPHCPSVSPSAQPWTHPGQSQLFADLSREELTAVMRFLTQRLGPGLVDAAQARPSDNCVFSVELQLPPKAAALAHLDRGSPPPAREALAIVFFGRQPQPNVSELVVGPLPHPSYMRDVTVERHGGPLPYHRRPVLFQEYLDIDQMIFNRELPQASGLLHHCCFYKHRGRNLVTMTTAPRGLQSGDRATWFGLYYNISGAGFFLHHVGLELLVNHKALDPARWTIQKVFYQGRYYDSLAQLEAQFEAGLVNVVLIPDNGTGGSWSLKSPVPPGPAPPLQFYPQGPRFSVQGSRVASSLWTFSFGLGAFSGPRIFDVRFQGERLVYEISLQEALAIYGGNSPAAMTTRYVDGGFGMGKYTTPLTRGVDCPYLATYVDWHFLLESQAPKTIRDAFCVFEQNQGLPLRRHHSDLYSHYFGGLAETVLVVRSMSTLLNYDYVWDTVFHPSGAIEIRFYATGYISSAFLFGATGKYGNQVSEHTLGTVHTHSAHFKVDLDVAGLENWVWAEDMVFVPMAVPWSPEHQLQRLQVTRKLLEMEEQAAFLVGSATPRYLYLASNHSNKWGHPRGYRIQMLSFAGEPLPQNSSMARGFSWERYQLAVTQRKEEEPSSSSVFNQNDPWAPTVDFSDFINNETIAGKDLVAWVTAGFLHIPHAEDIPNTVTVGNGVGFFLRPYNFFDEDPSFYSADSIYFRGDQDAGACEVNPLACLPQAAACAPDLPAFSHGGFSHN

Row | IC50 (rhVAP-1) | IC50 (rhMAO-A; [1]) | IC50 (rhMAO-B) | IC50 (rhMAO-A; bound printed in cell) | Structure (SMILES)
1 | < 0.1 µM | 1 to 10 µM | 0.1 to 1 µM |  | CCCCc1nc2cc(C)c(OC/C(=C/F)CN)cc2o1 [Example 68, (E)-2-(((2-butyl-5-methylbenzo[d]oxazol-6-yl)oxy)methyl)-3-fluoroprop-2-en-1-amine 4-methylbenzenesulfonate]
2 | < 0.1 µM | 1 to 10 µM | 1 to 10 µM |  | CCCN(C)c1nc2ccc(OC/C(=C/F)CN)cc2o1 [Example 46, (E)-6-((2-(aminomethyl)-3-fluoroallyl)oxy)-N-methyl-N-propylbenzo[d]oxazol-2-amine 4-methylbenzenesulfonate]
3 | < 0.1 µM | 10 to 30 µM | 1 to 10 µM |  | CC(C)(C)c1nc2ccc(OC/C(=C/F)CN)cc2o1 [Example 50, (E)-2-(((2-(tert-butyl)benzo[d]oxazol-6-yl)oxy)methyl)-3-fluoroprop-2-en-1-amine 4-methylbenzenesulfonate]
4 | < 0.1 µM |  | 1 to 10 µM | > 40 µM | NC/C(=C\F)COc1ccc2nc(NCc3ccc(C(F)(F)F)nc3)oc2c1 [Example 84, (E)-6-((2-(aminomethyl)-3-fluoroallyl)oxy)-N-((6-(trifluoromethyl)pyridin-3-yl)methyl)benzo[d]oxazol-2-amine 4-methylbenzenesulfonate]
5 | < 0.1 µM | 10 to 30 µM | 1 to 10 µM |  | NC/C(=C\F)COc1ccc2nc(NCc3ccncc3)oc2c1 [Example 23, (E)-6-((2-(aminomethyl)-3-fluoroallyl)oxy)-N-(pyridin-4-ylmethyl)benzo[d]oxazol-2-amine 4-methylbenzenesulfonate]
6 | < 0.1 µM | 1 to 10 µM | 1 to 10 µM |  | NC/C(=C\F)COc1ccc2nc(C34CC5CC(CC(C5)C3)C4)oc2c1 [Example 54, (E)-2-(((2-((3r,5r,7r)-adamantan-1-yl)benzo[d]oxazol-6-yl)oxy)methyl)-3-fluoroprop-2-en-1-amine 4-methylbenzenesulfonate]

— patent US20230295140A1, “INHIBITORS OF VAP-1” (Acucela Inc., priority 2021, published 2023)
